Measurements reported in patent US20120201749A1, “NP-1 Antagonists and Their Therapeutic Use” (priority 2009, published 2012).

Molecular target: NP-1 (Homo sapiens, UniProt O14786)
Experiment: Biotinylated-VEGF-A165 (bt-VEGF-A165) binding to NP-1
Conditions: for inhibition at 3 µM: 3 μM compound, read-out: Screen (% inhibition at 3 μM); for inhibition at 30 µM: 30 μM compound, read-out: Screen (% inhibition at 30 μM)
Experimental: Human prostate carcinoma DU145 cells were cultured in growth medium (RPMI 1640 containing 10% FBS and L-glutamine). DU145 cells were seeded at the density of 2×10^4 cells per well (96-well plates) in 0.1 ml growth medium and transfected with adenovirus vectors containing the full-length open-reading frame of human NP-1. The Ad.NP-1-transfected cells grew for 2 days prior to a binding assay.
Confluent Ad.NP-1-transfected cells in 96-well plates were washed twice with phosphate-buffered saline (PBS). The various concentrations of compounds diluted in binding medium (Dulbecco's modified Eagle's medium, 25 mM HEPES pH 7.3 containing 0.1% BSA) were added, followed by addition of 2 nM of bt-VEGF-A165. After 2 h of incubation at room temperature, the medium was aspirated and washed three times with PBS. The bound bt-VEGF-A165 to NP-1 was detected by streptavidin-horseradish peroxidase conjugates and the enzyme substrate, and measured using a Tecan Genios plate reader at A450 nm with a reference wavelength at A595 nm. Non-specific binding was determined in the presence of 100-fold excess unlabelled VEGF-A165.
The 96-well plates were pre-coated with NP1 protein at 3 μg/ml overnight at 4° C. On the following day, the plates were treated with blocking buffer (PBS containing 1% BSA) and washed three times with wash buffer (PBS containing 0.1% Tween-20). The various concentrations of compounds diluted in PBS containing 1% DMSO were added, followed by addition of 0.25 nM of bt-VEGF-A165. After 2 h of incubation at room temperature, the plates were washed three times with wash buffer. The bound bt-VEGF-A165 to NP-1 was detected by streptavidin-horseradish peroxidase conjugates and the enzyme substrate, and measured using a Tecan Genios plate reader at A450 nm with a reference wavelength at A595 nm. Nonspecific binding was determined in the absence of NP-1 coated wells of the plates.

Sequence of NP-1 (O14786 22-923): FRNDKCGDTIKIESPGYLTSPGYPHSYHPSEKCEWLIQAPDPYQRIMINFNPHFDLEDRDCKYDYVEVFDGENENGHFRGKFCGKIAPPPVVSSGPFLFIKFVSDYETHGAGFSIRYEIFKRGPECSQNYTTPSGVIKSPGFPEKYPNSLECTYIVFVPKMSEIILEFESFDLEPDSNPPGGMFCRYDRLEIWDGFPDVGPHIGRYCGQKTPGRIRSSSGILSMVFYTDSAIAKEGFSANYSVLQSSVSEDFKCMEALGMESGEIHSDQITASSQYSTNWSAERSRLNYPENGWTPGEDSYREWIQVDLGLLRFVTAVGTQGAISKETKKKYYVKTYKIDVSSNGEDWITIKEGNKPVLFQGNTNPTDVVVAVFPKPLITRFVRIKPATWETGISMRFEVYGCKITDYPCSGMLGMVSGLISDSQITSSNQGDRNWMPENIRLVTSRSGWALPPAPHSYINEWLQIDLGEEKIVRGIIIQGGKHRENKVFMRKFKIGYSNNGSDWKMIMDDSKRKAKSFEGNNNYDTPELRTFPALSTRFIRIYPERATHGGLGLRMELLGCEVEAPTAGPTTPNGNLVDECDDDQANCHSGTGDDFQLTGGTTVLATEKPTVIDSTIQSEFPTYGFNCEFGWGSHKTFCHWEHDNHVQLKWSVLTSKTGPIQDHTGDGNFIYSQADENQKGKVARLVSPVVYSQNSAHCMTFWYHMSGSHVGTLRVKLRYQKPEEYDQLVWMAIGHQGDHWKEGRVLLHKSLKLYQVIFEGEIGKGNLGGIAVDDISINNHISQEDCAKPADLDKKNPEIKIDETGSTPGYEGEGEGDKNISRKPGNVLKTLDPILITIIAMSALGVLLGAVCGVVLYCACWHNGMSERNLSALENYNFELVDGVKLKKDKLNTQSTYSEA

inhibition at 3 µM [%] | IC50 [nM] | inhibition at 30 µM [%] | SMILES
61 |  |  | N=C(N)NCCC[C@H](NC(=O)c1sccc1NS(=O)(=O)c1cc(-c2ccccc2CNCc2ccc(N)nc2)cc2c1OCC2)C(=O)O [Compound 39, (S)-2-({3-[5-(2-{[(6-Amino-pyridin-3-ylmethyl)-amino]-methyl}-phenyl)-2,3-dihydro-benzofuran-7-sulfonylamino]-thiophene-2-carbonyl}-amino)-5-guanidino-pentanoic acid]
52 |  |  | Cc1[nH]ncc1CCCNCc1cccc(-c2cc3c(c(S(=O)(=O)Nc4ccsc4C(=O)N[C@@H](CCCNC(=N)N)C(=O)O)c2)OCC3)c1 [Compound 41, (S)-5-Guanidino-2-({3-[5-(3-{[3-(5-methyl-1H-pyrazol-4-yl)-propylamino]-methyl}-phenyl)-2,3-dihydro-benzofuran-7-sulfonylamino]-thiophene-2-carbonyl}-amino)-pentanoic acid]
65 |  |  | Cc1[nH]ncc1CCCNCc1ccccc1-c1cc2c(c(S(=O)(=O)Nc3ccsc3C(=O)N[C@@H](CCCNC(=N)N)C(=O)O)c1)OCC2 [Compound 46, (S)-5-Guanidino-2-({3-[5-(2-{[3-(5-methyl-1H-pyrazol-4-yl)-propylamino]-methyl}-phenyl)-2,3-dihydro-benzofuran-7-sulfonylamino]-thiophene-2-carbonyl}-amino)-pentanoic acid]
89 | 142 |  | N=C(N)NCCC[C@H](NC(=O)c1sccc1NS(=O)(=O)c1cc(-c2cccc(CN3CCC(C(=O)O)CC3)c2)cc2c1OCC2)C(=O)O [Compound 3, 1-(3-{7-[2-((S)-1-Carboxy-4-guanidino-butylcarbamoyl)-thiophen-3-ylsulfamoyl]-2,3-dihydro-benzofuran-5-yl}-benzyl)-piperidine-4-carboxylic acid]
53 |  | 91 | N=C(N)NCCC[C@H](NC(=O)c1sccc1NS(=O)(=O)c1cccc(NCc2csc(N3CCOCC3)n2)c1)C(=O)O [Compound 71, (S)-5-guanidino-2-[(3-{3-[(2-morpholin-4-yl-thiazol-4-ylmethyl)-amino]-benzenesulfonylamino}-thiophene-2-carbonyl]-amino]-pentanoic acid]
55 |  | 100 | Cc1cc(CNCc2ccccc2-c2cc3c(c(S(=O)(=O)Nc4ccsc4C(=O)N[C@@H](CCCNC(=N)N)C(=O)O)c2)OCC3)no1 [Compound 26, (S)-5-Guanidino-2-({3-[5-(2-{[(5-methyl-isoxazol-3-ylmethyl)-amino]-methyl}-phenyl)-2,3-dihydro-benzofuran-7-sulfonylamino]-thiophene-2-carbonyl}-amino)-pentanoic acid]
82 |  |  | N=C(N)NCCC[C@H](NC(=O)c1sccc1NS(=O)(=O)c1cc(-c2cccc(CNCc3ccc(O)nc3)c2)cc2c1OCC2)C(=O)O [Compound 43, (S)-5-Guanidino-2-({3-[5-(3-{[(6-hydroxy-pyridin-3-ylmethyl)-amino]-methyl}-phenyl)-2,3-dihydro-benzofuran-7-sulfonylamino]-thiophene-2-carbonyl}-amino)-pentanoic acid]
31 |  | 83 | N=C(N)NCCC[C@H](NC(=O)c1sccc1NS(=O)(=O)c1cccc(NCc2csc(C(=O)O)n2)c1)C(=O)O [Compound 72]
49 |  | 83 | N=C(N)NCCC[C@H](NC(=O)c1sccc1NS(=O)(=O)c1cccc(NCc2csc(N3CCN(c4ccccn4)CC3)n2)c1)C(=O)O [Compound 63, (S)-5-guanidino-2-{[3-(3-{[2-(4-pyridin-2-yl-piperazin-1-yl)-thiazol-4-ylmethyl]-amino}-benzenesulfonylamino)-thiophene-2-carbonyl]-amino}-pentanoic acid]
63 |  |  | N=C(N)NCCC[C@H](NC(=O)c1sccc1NS(=O)(=O)c1cccc(NCc2csc(N3CCN(c4ncncn4)CC3)n2)c1)C(=O)O [Compound 75, (S)-5-guanidino-2-{[3-(3-{[2-(4-[1,3,5]triazin-2-yl-piperazin-1-yl)-thiazol-4-ylmethyl]-amino}-benzenesulfonylamino)-thiophene-2-carbonyl]-amino}-pentanoic acid]
67 |  | 100 | N=C(N)NCCC[C@H](NC(=O)c1sccc1NS(=O)(=O)c1cc(-c2ccccc2CN2CCN(c3ccccn3)CC2)cc2c1OCC2)C(=O)O [Compound 14, (S)-5-Guanidino-2-[(3-{5-[2-(4-pyridin-2-yl-piperazin-1-ylmethyl)-phenyl]-2,3-dihydro-benzofuran-7-sulfonylamino}-thiophene-2-carbonyl)-amino]-pentanoic acid]
70 |  | 98 | N=C(N)NCCC[C@H](NC(=O)c1sccc1NS(=O)(=O)c1cc(-c2cccc(CN3CCC(N4CCOCC4)CC3)c2)cc2c1OCC2)C(=O)O [Compound 22, (S)-5-Guanidino-2-[(3-{5-[3-(4-morpholin-4-yl-piperidin-1-ylmethyl)-phenyl]-2,3-dihydro-benzofuran-7-sulfonylamino}-thiophene-2-carbonyl)-amino]-pentanoic acid]
83 | 635 | 100 | N=C(N)NCCC[C@H](NC(=O)c1sccc1NS(=O)(=O)c1cc(-c2ccccc2CN2CCC(N3CCOCC3)CC2)cc2c1OCC2)C(=O)O [Compound 25, (S)-5-Guanidino-2-[(3-{5-[2-(4-morpholin-4-yl-piperidin-1-ylmethyl)-phenyl]-2,3-dihydro-benzofuran-7-sulfonylamino}-thiophene-2-carbonyl)-amino]-pentanoic acid]
50 |  | 94 | N=C(N)NCCC[C@H](NC(=O)c1sccc1NS(=O)(=O)c1cc(-c2cccc(CN3CCC(N)CC3)c2)cc2c1OCC2)C(=O)O [Compound 34, (S)-2-[(3-{5-[3-(4-Amino-piperidin-1-ylmethyl)-phenyl]-2,3-dihydro-benzofuran-7-sulfonylamino}-thiophene-2-carbonyl)-amino]-5-guanidino-pentanoic acid]
70 |  | 100 | N=C(N)NCCC[C@H](NC(=O)c1sccc1NS(=O)(=O)c1cc(-c2ccccc2CNCc2ccccn2)cc2c1OCC2)C(=O)O [Compound 18, (S)-5-Guanidino-2-({3-[5-(2-{[(pyridin-2-ylmethyl)-amino]-methyl}-phenyl)-2,3-dihydro-benzofuran-7-sulfonylamino]-thiophene-2-carbonyl}-amino)-pentanoic acid]
82 | 2000 | 100 | N=C(N)NCCC[C@H](NC(=O)c1sccc1NS(=O)(=O)c1cc(-c2ccccc2CN2CCNCC2)cc2c1OCC2)C(=O)O [Compound 20, (S)-5-Guanidino-2-({3-[5-(2-piperazin-1-ylmethyl-phenyl)-2,3-dihydro-benzofuran-7-sulfonylamino]-thiophene-2-carbonyl}-amino)-pentanoic acid]
70 |  |  | N=C(N)NCCC[C@H](NC(=O)c1sccc1NS(=O)(=O)c1cc(-c2ccccc2CNCc2cn[nH]c2)cc2c1OCC2)C(=O)O [Compound 54, (S)-5-Guanidino-2-({3-[5-(2-{[(1H-pyrazol-4-ylmethyl)-amino]-methyl}-phenyl)-2,3-dihydro-benzofuran-7-sulfonylamino]-thiophene-2-carbonyl}-amino)-pentanoic acid]
56 |  |  | N=C(N)NCCC[C@H](NC(=O)c1sccc1NS(=O)(=O)c1cc(-c2ccccc2CNCc2ccncc2)cc2c1OCC2)C(=O)O [Compound 19, (S)-5-Guanidino-2-({3-[5-(2-{[(pyridin-4-ylmethyl)-amino]-methyl}-phenyl)-2,3-dihydro-benzofuran-7-sulfonylamino]-thiophene-2-carbonyl}-amino)-pentanoic acid]
25 |  | 63 | N#Cc1cccc(NC(=O)CNc2cccc(S(=O)(=O)Nc3ccsc3C(=O)N[C@@H](CCCNC(=N)N)C(=O)O)c2)c1 [Compound 70, (S)-2-{[3-(3-{[(3-Cyano-phenylcarbamoyl)-methyl]-amino}-benzenesulfonylamino)-thiophene-2-carbonyl]-amino}-5-guanidino-pentanoic acid]
75 |  |  | N=C(N)NCCC[C@H](NC(=O)c1sccc1NS(=O)(=O)c1cc(-c2cccc(CNCc3ccncc3)c2)cc2c1OCC2)C(=O)O [Compound 32, (S)-5-Guanidino-2-({3-[5-(3-{[(pyridin-4-ylmethyl)-amino]-methyl}-phenyl)-2,3-dihydro-benzofuran-7-sulfonylamino]-thiophene-2-carbonyl}-amino)-pentanoic acid]
94 | 740 |  | N=C(N)NCCC[C@H](NC(=O)c1sccc1NS(=O)(=O)c1cc(-c2cccc(CNCc3cn[nH]c3)c2)cc2c1OCC2)C(=O)O [Compound 51, (S)-5-Guanidino-2-({3-[5-(3-{[(1H-pyrazol-4-ylmethyl)-amino]-methyl}-phenyl)-2,3-dihydro-benzofuran-7-sulfonylamino]-thiophene-2-carbonyl}-amino)-pentanoic acid]
